Values of other authors in patent US9301985B2, “Therapeutic agent for dementia” (Kibun Foods Inc., priority 2013, dated 2016).

Assays:
[1] = system: cerebrovascular dementia model and Alzheimer's disease model; conditions: rat; cerebrovascular dementia model (vessel artificially clogged) and Alzheimer's disease model
k-opioid receptor = k-opioid receptor (Homo sapiens, UniProt P41145); conditions: erinacine E derived from Hericium ramosum
[2] = system: nerve growth factor (NGF); conditions: erinacine E derived from Hericium erinaceum

Chain of k-opioid receptor (P41145 whole entry): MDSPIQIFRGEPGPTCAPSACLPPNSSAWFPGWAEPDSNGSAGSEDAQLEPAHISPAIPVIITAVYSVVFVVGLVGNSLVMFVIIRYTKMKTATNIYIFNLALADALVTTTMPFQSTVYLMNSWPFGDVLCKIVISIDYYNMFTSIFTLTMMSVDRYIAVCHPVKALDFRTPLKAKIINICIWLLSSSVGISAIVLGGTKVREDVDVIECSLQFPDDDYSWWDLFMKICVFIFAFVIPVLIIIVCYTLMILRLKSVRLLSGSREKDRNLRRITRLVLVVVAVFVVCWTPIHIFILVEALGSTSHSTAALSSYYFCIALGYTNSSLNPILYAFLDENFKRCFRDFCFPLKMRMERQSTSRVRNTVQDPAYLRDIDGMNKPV

Row | SMILES | memory retention and learning ability [1] | activity at k-opioid receptor (k-opioid receptor) | nerve growth factor (NGF) production [2]
1 | CC(C)C1=C2C3=CC=C(C=O)C[C@H](O[C@@H]4OC[C@@H](O)[C@H](O)[C@H]4O)[C@]3(C)CC[C@@]2(C)CC1 [erinacine A] | apparent improvement | – | –
2 | CC(C)C1=C2C3CC=C4C(O)C5(O)COC6OC(C4C6(O)C5O)C3(C)CCC2(C)CC1 (stereo not shown) [erinacine E] | – | agonist | action to accelerate
3 | CCCCCCCCCCCCCCCC(=O)OCc1cc(OC)c(C/C=C(\C)CC(=O)C=C(C)C)c(O)c1C=O [hericenone C] | apparent improvement | – | –
